Experimental data reported in US4085134A, “Amino-phosphonic-sulfonic acids” (Petrolite Corporation, priority 1974, dated 1978).
Where a name gives a salt, the structure may show the parent alone.

Experiments:
[1] = Calcium Scale Inhibition Test; conditions: 180° F, samples at 2 and 4 hour periods
Description: Calcium Scale Inhibition Test
The procedure utilized to determine the effectiveness of scale inhibitors in regard to calcium scale is as follows:
Several 50 ml. samples of a 0.04 sodium bicarbonate solution are placed in 100 ml. bottles. To these solutions is added the inhibitor in various known concentrations. 50 ml. samples of a 0.02 M CaCl2 solution are then added.
A total hardness determination is then made on the 50-50 mixture utilizing the well known Schwarzenbach titration. The samples are placed in a water bath and heated at 180° F. 10 ml. samples are taken from each bottle at 2 and 4 hour periods. These samples are filtered through millipore filters and the total hardness of the filtrates are determined by titration.

[2] = powerful sequesterants; background statement; cited from earlier work

O=P(O)(O)CN(CCCS(=O)(=O)O)C1CCCCC1 [Example 1]
% Inhibition (calcium scale inhibition) ([1]; 100 ppm): 86%

CCCCCCCCN(CCCS(=O)(=O)O)CP(=O)(O)O [Example 4]
% Inhibition (calcium scale inhibition) ([1]; 100 ppm): 24%
% Inhibition (calcium scale inhibition) ([1]; 200 ppm): 60%

O=P(O)(O)CN(CCCS(=O)(=O)O)CCN(CCCS(=O)(=O)O)CP(=O)(O)O [Example 11]
% Inhibition (calcium scale inhibition) ([1]; 50 ppm): 95%
% Inhibition (calcium scale inhibition) ([1]; 100 ppm): 100%

O=P(O)(O)CN(CCCS(=O)(=O)O)CCN(CCN(CP(=O)(O)O)CP(=O)(O)O)CP(=O)(O)O [Example 14]
% Inhibition (calcium scale inhibition) ([1]; 10 ppm): 66%
% Inhibition (calcium scale inhibition) ([1]; 100 ppm): 100%

O=P(O)(O)CN(CCCS(=O)(=O)O)CCN(CCN(CCCS(=O)(=O)O)CP(=O)(O)O)CP(=O)(O)O [Example 15]
% Inhibition (calcium scale inhibition) ([1]; 10 ppm): 42%
% Inhibition (calcium scale inhibition) ([1]; 50 ppm): 95%

O=C(O)CN(CCN(CC(=O)O)CC(=O)O)CC(=O)O [ethylenediamine tetracetic acid salts, ethylenediamine tetracetic acid]
threshold activities [2]: no threshold activities
